Experimental data taken from article PMC9555310, “Novel inhibitors and activity-based probes targeting serine proteases” (Frontiers in Chemistry, 2022).

Key:
[1] = target: T1, elastase-like proteases (NE) in CF Sol samples (Homo sapiens, UniProt P08246); experiment: Activity-based profiling of CF Sol samples (SDS-PAGE, streptavidin-HRP western blot); type: binding; settings: 50 μM, 30 min, 37°C; band ∼29 kDa
T1 construct: from tissue; host or cells: Cystic Fibrosis (CF) Sol samples 26w and 41w from patients
T1 sequence (P08246 30-247 limits assumed): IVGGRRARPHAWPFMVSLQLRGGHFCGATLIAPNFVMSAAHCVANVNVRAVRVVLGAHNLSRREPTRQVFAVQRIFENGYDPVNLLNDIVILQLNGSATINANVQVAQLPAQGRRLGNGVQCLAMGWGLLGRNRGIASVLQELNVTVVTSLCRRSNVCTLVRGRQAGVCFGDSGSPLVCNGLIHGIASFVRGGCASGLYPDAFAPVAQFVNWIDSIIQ
Protocol: (§1) Samples of recombinant protease (trypsin, plasmin, thrombin, chymotrypsin, or HNE, as indicated in the relevant figure legends) were treated with each of the newly synthesized compounds at a concentration of 50 μM, for 30 min, at 37°C. A control sample (no ABP) was prepared by treating the recombinant protease with solvent vehicle (DMF) only, used to prepare the stock solution of each ABP. Samples were also pre-treated (±90°C for 30 min) before being incubated with each putative ABP. With trypsin and thrombin, further samples were prepared where Z-Arg^P-(OPh)2 or NAP559, respectively, was added 30 min prior to the addition of the ABP under examination. All treated samples were then denatured with SDS containing reducing treatment buffer (10 min at 95°C), followed by resolution by SDS-PAGE and subjected to Western blotting. Resolved proteins were then transferred onto the nitrocellulose membrane and labeled with streptavidin-HRP. The ABP–protease complex was then visualized following treatment with Luminata Forte HRP substrate.
FIGURE 7 Activity Based Profiling of serine proteases by peptide N-Alkyl glycine carbamates. […] CF Sol (sample 26w) was used at a final concentration of 2.5% (v/v), and the level of NE contained therein was measured using Succinyl-Ala-Ala-Pro-Val-NHMec (50 μM), in the absence (-- o --) and presence (-- o --) of NAP800 (50 μM). […]

trypsin = target: T2, trypsin (Sus scrofa, UniProt P00761); experiment: Activity-based profiling of trypsin (SDS-PAGE, streptavidin-HRP western blot); type: binding, porcine; settings: 50 μM ABP, 30 min, 37°C; band of apparent molecular weight 23 kDa
T2 construct: purchased Sigma-Aldrich; host or cells: porcine pancreas
T2 sequence (P00761 9-231): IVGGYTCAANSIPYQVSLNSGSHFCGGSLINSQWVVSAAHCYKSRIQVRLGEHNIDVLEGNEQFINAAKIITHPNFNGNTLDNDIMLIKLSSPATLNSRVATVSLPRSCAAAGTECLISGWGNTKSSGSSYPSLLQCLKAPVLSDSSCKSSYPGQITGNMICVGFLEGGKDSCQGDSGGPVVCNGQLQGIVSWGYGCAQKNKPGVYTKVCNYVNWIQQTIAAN
Protocol: as §1, with “The ABP–protease complex was then visualized following treatment with Luminata Forte HRP substrate.” left out
Following transfer, the extra protein binding sites on the membrane were blocked by addition of 3% (w/v) BSA in TBST (20 mM Tris, 137 mM NaCl, 1% (v/v) Tween 20, pH 7.6) and agitated gently at room temperature for 30 minutes. The biotin-labelled proteases were then detected by addition of Streptavidin-HRP (Vector Laboratories) in 3% (w/v) BSA in TBST at a concentration of 1:20000, for 1 hour at room temperature. […]

Compound | labelling of elastase-like proteases in CF Sol (western blot) [1] | labelling of trypsin by ABP (western blot) (trypsin)
CC(C)N(CC(=O)NCC(=O)NCC(=O)NCCCOCCOCCOCCCNC(=O)CCCCC1SCC2NC(=O)NC21)C(=O)ON1C(=O)CCC1=O (stereo not drawn) [NAP800, Succinimidoyl-CO-NVal-Gly-Gly-PEG-Biotin] | detection of a diffuse band in two CF Sol samples (26w and 41w) | 
NCCCCN(CC(=O)NCC(=O)NCC(=O)NCCCOCCOCCOCCCNC(=O)CCCCC1SCC2NC(=O)NC21)C(=O)ON1C(=O)CCC1=O (stereo not drawn) [NAP830, Succinimidoyl-CO-NLys-Gly-Gly-PEG-Biotin] |  | enabled the active site labeling and detection of the protease
